System: D-dopachrome tautomerase
Experiment: 2-DE proteome analysis of rat hippocampus: D-dopachrome tautomerase
Assay type: in vivo
Settings: rat hippocampus cytosolic extract, 10 mg/kg i.p. daily 14 days, vs control; gel spot 93
Protocol: Animal dosing. Adult male Sprague Dawley rats weighing 230-320 g were housed with ad libitum access to food and water. After 1 week of habituation, rats were administered either an antidepressant or vehicle alone. The following drugs were administered intraperitoneally (i.p.): fluoxetine (10 mg/kg daily), venlafaxine (10 mg/kg daily) or vehicle alone (1 ml/kg normal saline daily) for 14 days (n=3 rats per group).
Sample preparation and cytosolic protein extraction. The animals were euthanized and hippocampi were rapidly dissected from the whole brain. Samples from each treatment group were pooled and stored at −85° C. Cytosolic extracts were prepared using the universal extraction kit from Sigma (prot-two) as follows: soluble cytoplasmic extraction reagent (S2688) was added to the hippocampal tissue (10 ml/250 mg wet weight). […]
Two-dimensional gel electrophoresis. […] Molecular masses were determined by running standard protein markers (Genomic Solutions Inc.), covering the range 10-200 kDa as well as internal verification via landmark proteins within the gel. […]
Protein fixation, silver staining and 2-D gel comparisons. […] Protein spots were outlined (first automatically and then manually) and quantified using the HT analyzer v2.2 software (Genomic Solutions Inc.). The software calculated the relative spot volume of the proteins compared with the total amount of protein in the gel. […]

| Compound | Fold change, D-dopachrome tautomerase [Fold change] |
| --- | --- |
| CNCCC(Oc1ccc(C(F)(F)F)cc1)c1ccccc1 (centres unmarked) [Fluoxetine, fluoxetine] | 2.2 |
| COc1ccc(C(CN(C)C)C2(O)CCCCC2)cc1 (centres unmarked) [Venlafaxine, venlafaxine] | 2.3 |

Reference: US20080293583A1, “Methods for diagnosing mood disorders” (Wyeth, priority 2003, published 2008)
